The results in this text go back to patent US11434490B2, “Fluorogen-binding RNA aptamers” (CENTRE NATIONAL DE LA RECHERCHE SCIENTIFIQUE, priority 2017, dated 2022).

Data set [1] in a line: Fluorescence titration, binding affinity for TO1-PA. The note with it: ligand TO1-PA. The text has this: (§1) We determined the affinity and fluorescence enhancement of four compounds: TO1-OAc (TO1-acetate), TO1-ME (TO1-methylester), TO1-PA (TO1-propanylamide), TO1-PE (TO1-pentenoylester) (FIG. 42, Table 8 & 9). Binding affinity and fluorescence enhancement of TO1-OAc is drastically diminished, and nearly identical between the wild-type and A22U mutant. […] Further extension of the linker stabilizes the binding pocket by stacking on T3 but becomes sterically hindered by a bulky purine in position 22. The A22U mutation would limit steric clashes while preventing misfolding of the G-quadruplex core. Thus, the improved properties of the Mango-II A22U mutant may arise from improved packing of the linker of the fluorophore with an RNA with a homogeneous or predominant conformation.
(§2) Fluorescence readings were recorded using a Varian Cary Eclipse Spectrophotometer set to measure at the maximum excitation and emission wavelengths of the Mango II aptamer dye complex. Fluorescence titrations were performed in Mango selection buffer (WB: 140 mM KCl, 1 mM MgCl2, 10 mM NaH2PO4 pH 7.2, 0.05% Tween-20).

The nature of data set [2]: Fluorescence titration, binding affinity for TO1-Biotin. The note with it: for Kd: ligand TO1-B (TO1-Biotin).
Source text: FIG. 2|RNA Mango I, II, III and IV core sequences and their properties. (a) Color coded alignment of RNA Mango I, II, III and IV. G residues in yellow are protected from DMS cleavage (data from panel d) when folded in the presence of fluorophore. Quadruplex stacks and their associated propeller sequences are numbered 1 through 4. The GAAA isolation motif of Mango I, together with two adenines essential for binding, are shown in green and red respectively. Purple shading represents a flanking stem region common for all four Mango aptamers. Schematic: A tertiary structure schematic of Mango I, showing tier 1, 2 and 3 of its quadruplex structure (T1, T2 and T3) and color-coded as in (a). […] Bottom: Top view of the Mango I core (PBD ID: 5V3F), showing the T3 tier of the quadruplex and relevant propeller residues, color coding matches the schematic and panel a. […] KD values are shown next to each titration. (c) Same as for panel b but using 20 nM TO3-Biotin. Data for panels b and c have been normalized such that Mango I has a maximum fluorescence of 1. Error bars are standard deviation of three replicates. (d) DMS chemical protection patterns for the four Mango aptamers. 3′ end-labelled RNA (terminal ^32pCp shown as a black asterisk) was subjected to DMS chemical modification followed by reduction by NaBH4 and aniline cleavage as described in the methods. […] Legend: T1—denatured T1 ladder; OH—partial alkaline hydrolysis ladder; (−) DMS—denatured reaction with ddH2O added in place of DMS; 80° C.
Fluorescence data was gathered using a Varian Cary Eclipse Spectrophotometer unless otherwise stated. […] Fluorescence was measured at the maximum excitation and emission wavelengths of each complex (FIG. 13).
Where F([RNA]) is the fluorescence as a function of RNA concentration [RNA], Fmax is the maximal fluorescence of the bound complex and Funbound the fluorescence of the unbound fluorophore. When the fluorescence of Funbound was undetectable, it was set to zero.
as §2

A short description of data set [3]: Fluorescence titration, binding affinity for TO1-PE. Particulars: ligand TO1-PE.
Source text: as §1, §2

The nature of data set [4]: Fluorescence enhancement of TO1-PA. In kind it is biochemical. The note with it: ligand TO1-PA. On the procedure: The bandwidth for all measurements was 1.5 nm for all experiments. Measurements were performed in a 0.2 cm path length cuvette in a background of 20 mM MOPS pH 7.0, 150 mM KCl, 10 μM EDTA. Fluorescence readings were taken in the absence of RNA at a ligand concentration of 0.82 μM. A concentrated, annealed stock of RNA was then added to the cuvette resulting in a final concentration of 2 μM RNA and allowed to equilibrate for 1 minute prior to taking an emission reading. Fluorescence enhancement was determined by dividing the fluorescence signal of ligand in the presence of RNA by the fluorescence signal in the absence of RNA corrected for the background of the instrument.

As for “Mango-II: minimal construct engineered from isolate R2-1; SEQ ID NO: 6902 GCGUACGAAGGAGAGGAGAGGAAGAGGAGAGUACGC (chemistry not given here)”, the values for the equilibrium dissociation constant (Kd) in data set [1], in data set [2] and in data set [3] were 1.04 ± 0.57 nM, 1.1 ± 0.3 nM and 0.37 ± 0.06 nM, respectively. Further, the “TO1-Biotin binding affinity (in words)” value in data set [2] is “subnanomolar affinity”. The “FIE (fluorescence enhancement)” value in data set [4] is 493 ± 5.

B1: Mango II - A22U: Mango-II point mutant; SEQ ID NO: 6903 / 6905 (nucleic acid)
chain 1: GCGUACGAAGGAGAGGAGAGGUAGAGGAGAGUACGC
chain 2: GGCACGUACGAAGGAGAGGAGAGGUAGAGGAGAGUACGUGC
modifications: chemistry not given here
For the molecule B1, the values for the Kd in data set [1], in data set [2] and in data set [3] were 2.21 ± 1.09 nM, 0.9 ± 0.4 nM and 1 ± 0.13 nM, respectively. The “FIE (fluorescence enhancement)” value in data set [4] stood at 275 ± 3.
